Laboratory results: patent US12559497B2, “Imidazopiperazine inhibitors of transcription activating proteins” (Board of Regents, The University of Texas System, priority 2020, dated 2026)
One block for each compound: values may come before it.

Assays:
[1] = target: T1, GST-CBP (1081-1197) bromodomain (Homo sapiens, UniProt Q92793); experiment: CBP AlphaScreen assay; conditions: binding to biotin-H4 (1-21) Ac-K5/8/12/16
T1 construct: The GST tagged bromodomains of CBP (1081-1197) and BRD4 (49-170) were obtained from BPS Bioscience; purchased BPS Bioscience
Description: (§1) Specific binding of the CBP or BRD4 bromodomain to the acetylated peptide derived from the H4 histone substrate (tetra acetylated H4 (1-21) Ac—K5/8/12/16) was measured in absence or presence of inhibitors. The GST tagged bromodomains of CBP (1081-1197) and BRD4 (49-170) were obtained from BPS Bioscience and binding to the biotinylated H4 (1-21) Ac—K5/8/12/16 (AnaSpec. 64989) was assessed via AlphaScreen technology (Perkin Elmer).
CBP AlphaScreen assay: 5 nM GST-CBP (1081-1197) and 20 nM biotin-H4 (1-21) Ac—K5/8/12/16 (AnaSpec. 64989) were incubated with varying concentrations of CBP inhibitors in 15 μL of buffer containing 50 mM HEPES 7.5, […], 1 mM TCEP, and 0.003% Tween-20. After 30 minutes incubation at room temperature, 15 μL of detection buffer (BPS Bio. 33006) containing 7 μg/mL of Glutathione AlphaLisa acceptor beads (Perkin Elmer AL109) and 14 μg/mL of Streptavidin donor beads (Perkin Elmer 676002) was then added to the previous mixture. The reaction was incubated for an additional 2 hours at room temperature, and the AlphaScreen signal was quantified using the Envision Multilabel plate reader. As negative control, GST-CBP (1081-1197) was incubated with the non-acetylated biotin-H4 (1-21) peptide (AnaSpec. 62555) and in presence of 0.25% of final DMSO concentration.
(§2) BRD4 AlphaScreen assay: The binding of 2.5 nM of BRD4 (49-170) to 10 nM biotin-H4 (1-21) Ac—K5/8/12/16 (AnaSpec. 64989) was assessed following the same procedure described for the CBP assay. The standard dose response curves were fitted by Genedata Screener software using the variable-slope model: Signal=Signalnegative control+(SignalDMSO control−Signalnegative control)/(1+(IC50/Dose)∧Hill slope).
(§3) Only Signal and Dose in the equation were treated as known values.

DOHH2 cells = experiment: DOHH2 Proliferation Assay; type: cell-based; conditions: Homo sapiens, DOHH-2, 168 h; CellTiter-Glo viability on day 7
Description: DOHH2 Proliferation Assay: On day 1, 1000 DOHH2 cells were seeded to a 384-well TC plate (PerkinElmer #6007680) in 40 μL RPMI 1640 media, followed by the addition of CBP inhibitors except for column 13 where 3.3 μM staurosporine was added as negative control. DMSO was 0.1% in all the wells. The cells were lysed in and counted viability by 40 μL CellTiter-Glo (Promega #G9243) on day 7. The luminescent signal was quantified by Envision Multilabel plate reader and the standard dose response curves were fitted by Genedata Screener software using the variable-slope model: Signal=Signalnegative control+(SignalDMSO control−Signalnegative control)/(1+(IC50/Dose)∧Hill slope).
as §3

[2] = target: T2, BRD4 (49-170) bromodomain (Homo sapiens, UniProt O60885); experiment: BRD4 AlphaScreen assay; conditions: binding to biotin-H4 (1-21) Ac-K5/8/12/16
T2 construct: The GST tagged bromodomains of CBP (1081-1197) and BRD4 (49-170) were obtained from BPS Bioscience; purchased BPS Bioscience
Description: as §1, §2, §3

[3] = In vivo pharmacokinetics after a single dose, rat; conditions: male, plasma, Sprague-Dawley rat
Description: (§4) IV (intravenous) doses were formulated in 20% DMSO+60% PEG400+20% water. PO (per os) doses were formulated in 0.5% methylcellulose in water.
Rat: Male rats (SD strain, purchased from Shanghai JH Laboratory Animal Co. LTD) weighing 200-300 g were used for studies. Animals were fasted overnight and fed 4 h postdose. Water was available ad libitum for all animals. Test article was dosed via dorsal foot vein (IV doses) or oral gavage (PO doses). Blood samples were collected via tail vein from all animals at predose and at 0.083, 0.25, 0.5, 1, 2, 4, 8, and 24 h postdose into tubes containing the anticoagulant K2EDTA. Plasma was separated from the blood by centrifugation at 4° C. and stored at −70° C. until analysis. Test article concentrations in plasma were quantified using a liquid chromatography with tandem mass spectrometry (LC-MS/MS) method.

[4] = In vivo pharmacokinetics after a single dose, dog; conditions: male, plasma, Beagle dog
Description: as §4
(§5) Dog: Male Beagle dogs (purchased from Beijing Marshall Biotechnology Co., Ltd) weighing 7-10 kg were used for studies. Animals were fasted overnight and fed 4 h postdose. Test article was administered to dogs via the cephalic vein (IV doses) or oral gavage (PO doses). Blood samples were collected via the saphenous vein or cephalic vein from all animals at predose and 0.083, 0.25, 0.5, 1, 2, 4, 8, and 24 h postdose into tubes containing the anticoagulant K2EDTA. Plasma was separated from the blood by centrifugation at 4° C. and stored at −70° C. until analysis. Test article concentrations in plasma were quantified using a liquid chromatography with tandem mass spectrometry (LC-MS/MS) method.

[5] = In vivo pharmacokinetics after a single dose, monkey; conditions: male, plasma, Cynomolgus monkey
Description: as §4
as §5, with “Monkey:” for “Dog:”, “Cynomolgus monkeys” for “Beagle dogs”, “Hainan Jingang Biotech.” for “Beijing Marshall Biotechnology”, “3-5” for “7-10”, “monkeys” for “dogs”, “nasal” for “oral”

[6] = In vivo pharmacokinetics after a single dose, mouse; design: species or system Female CD-1 Mice; conditions: for mouse in vivo clearances compared to the structural analogs previously disclosed / mouse in vivo half-lives compared to the structural analogs previously disclosed: in words; for clearance / half-life / Vd: plasma, Female CD-1 mice, single dose 0.2 or 0.3 mg/kg IV; for Vd: read-out: Vss
Description: as §4
Mouse: Female mice (CD1 strain, purchased from Shanghai JH Laboratory Animal Co. LTD) weighing 20-30 g were used for studies. Food and water were available to all animals ad libitum. The test article was dosed via tail vein (IV doses) or oral gavage (PO doses), respectively. Blood samples were collected from all animals at predose and at 0.083, 0.25, 0.5, 1, 2, 4, 8, and 24 h postdose into tubes containing the anticoagulant K2EDTA (3 animals per time point with 3 time points collected per animal). Plasma was separated from the blood by centrifugation at 4° C. and stored at −70° C. until analysis. Test article concentrations in plasma were quantified using a liquid chromatography with tandem mass spectrometry (LC-MS/MS) method.

[7] = Metabolic stability in monkey liver microsomes; type: in vitro ADME; conditions: pH 7.4, read-out: Liver microsomal clearance (t1/2)
Description: (§6) Microsomal stability. Microsomal stability assays were conducted on a Beckmann Biomek FXp laboratory automation system. The liver microsomal incubation mixture consisted of liver microsomes (0.5 mg microsomal protein/mL), the Compound (1 μM), MgCl2 (3 mM), and EDTA (1 mM) in potassium phosphate buffer (100 mM, pH 7.4). Midazolam and Ketanserin were used as the assay control substrates. The reaction was initiated with the addition of an NADPH regeneration solution (1.3 mM NADPH) and maintained at 37° C. with shaking. At five time points ranging from 0 to 45 min, aliquots (50 μL) were removed and quenched with acetonitrile (100 μL) containing an internal standard (imipramine). After vortex and centrifugation, samples were analyzed by LC-MS/MS. Calculation of the in vitro half-lives and clearance followed literature guidelines.

[8] = Metabolic stability in human liver microsomes; type: in vitro ADME; conditions: pH 7.4, 0.5 mg/mL microsomes, NADPH, 45 minutes, 37° C., read-out: Half-life in liver microsomes (t1/2)
Description: as §6

[9] = Metabolic stability in rat liver microsomes; type: in vitro ADME; conditions: Sprague Dawley, pH 7.4, 0.5 mg/mL microsomes, NADPH, 45 minutes, 37° C., read-out: Half-life in liver microsomes (t1/2)
Description: as §6

[10] = Metabolic stability in dog liver microsomes; type: in vitro ADME; conditions: pH 7.4, read-out: Liver microsomal clearance (t1/2)
Description: as §6

[11] = Metabolic stability in mouse liver microsomes; type: in vitro ADME, CD-1 mouse; conditions: CD-1, liver microsomes, pH 7.4, 0.5 mg/mL microsomes, NADPH, 45 minutes, 37° C., read-out: Half-life in liver microsomes (t1/2)
Description: as §6

[12] = 1 mg/kg IV single dose, read-out: Vss

T1 sequence (Q92793 1081-1197): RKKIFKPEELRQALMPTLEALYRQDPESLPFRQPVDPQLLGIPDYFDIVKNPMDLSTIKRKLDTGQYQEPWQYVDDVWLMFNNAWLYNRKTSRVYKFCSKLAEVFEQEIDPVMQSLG

SMILES: CC(=O)N1CCn2c(C3CCOCC3)nc(-c3cccc4cc(-c5cnc(C)s5)ncc34)c2C1 [Compound 1, 1-(1-(3-(2-methylthiazol-5-yl)isoquinolin-8-yl)-3-(tetrahydro-2H-pyran-4-yl)-5,6-dihydroimidazo[1,5-α]pyrazin-7 (8H)-yl)ethan-1-one]
- clearance ([3]; 1 mg/kg IV single dose): 11.2 mL/min/kg
- half-life ([3]; 1 mg/kg IV single dose): 229 min
- Vd [3, 12]: 2.31 L/kg
- AUC(0-t) ([3]; 30 mg/kg PO single dose): 124 µM·h
- Cmax ([3]; 30 mg/kg PO single dose): 23 µM
- bioavailability ([3]; 30 mg/kg PO single dose): 129%
- clearance ([4]; 1 mg/kg IV single dose): 4.3 mL/min/kg
- half-life ([4]; 1 mg/kg IV single dose): 584 min
- Vd [4, 12]: 3.38 L/kg
- AUC(0-t) ([4]; 3 mg/kg PO single dose): 26.2 µM·h
- Cmax ([4]; 3 mg/kg PO single dose): 2560 nM
- bioavailability ([4]; 3 mg/kg PO single dose): 119%
- IC50 [1]: 7 nM
- IC50 (DOHH2 cells): 261 nM
- IC50 [2]: 13.2 µM
- clearance ([5]; 1 mg/kg IV single dose): 6.97 mL/min/kg
- half-life ([5]; 1 mg/kg IV single dose): 284 min
- Vd [5, 12]: 2.28 L/kg
- AUC(0-t) ([5]; 3 mg/kg PO single dose): 11.3 µM·h
- Cmax ([5]; 3 mg/kg PO single dose): 1970 nM
- bioavailability ([5]; 3 mg/kg PO single dose): 70.5%
- mouse in vivo clearances compared to the structural analogs previously disclosed [6]: dramatic decrease
- mouse in vivo half-lives compared to the structural analogs previously disclosed [6]: increase
- clearance [6]: 6.2 mL/min/kg
- half-life [6]: 179 min
- Vd [6]: 1.45 L/kg
- half-life at 1 μM [7]: 97 min
- half-life at 1 μM [8]: 310 min
- half-life at 1 μM [9]: 1220 min
- half-life at 1 μM [10]: 713 min
- half-life at 1 μM [11]: 393 min

SMILES: CNC(=O)c1ccc(-c2cc3cccc(-c4nc(C5CCOCC5)n5c4CN(C(C)=O)CC5)c3cn2)cn1 [Compound 3, 5-(8-(7-Acetyl-3-(tetrahydro-2H-pyran-4-yl)-5,6,7,8-tetrahydroimidazo[1,5-α]pyrazin-1-yl)isoquinolin-3-yl)-N-methylpicolinamide]
- IC50 [1]: 16 nM
- IC50 (DOHH2 cells): 232 nM
- IC50 [2]: 15 µM
- mouse in vivo clearances compared to the structural analogs previously disclosed [6]: dramatic decrease
- mouse in vivo half-lives compared to the structural analogs previously disclosed [6]: increase
- clearance [6]: 11.9 mL/min/kg
- half-life [6]: 153 min
- Vd [6]: 1.84 L/kg
- half-life at 1 μM [8]: 289 min
- half-life at 1 μM [9]: 302 min
- half-life at 1 μM [11]: 482 min

SMILES: CNC(=O)c1ccc(-c2cc3cccc(-c4nc(C5CC5)n5c4CN(C(C)=O)CC5)c3cn2)cn1 [Compound 2, 5-(8-(7-Acetyl-3-cyclopropyl-5,6,7,8-tetrahydroimidazo[1,5-α]pyrazin-1-yl)isoquinolin-3-yl)-N-methylpicolinamide]
- IC50 [1]: 15 nM
- IC50 (DOHH2 cells): 376 nM
- IC50 [2]: 25 µM

SMILES: CNC(=O)c1ccc(-c2cc3cccc(-c4nc(C56CCC(CC5)OC6)n5c4CN(C(C)=O)CC5)c3cn2)cn1 [Compound 4, 5-(8-(7-acetyl-3-(2-oxabicyclo[2.2.2]octan-4-yl)-5,6,7,8-tetrahydroimidazo[1,5-α]pyrazin-1-yl)isoquinolin-3-yl)-N-methylpicolinamide]
- IC50 [1]: 22 nM
- IC50 (DOHH2 cells): 676 nM
- IC50 [2]: 17 µM

Continued, in another order:

- IC50 [1]: 14 nM
- IC50 [2]: 22.2 µM
SMILES: CC(=O)N1CCn2c(C3CCOCC3)nc(-c3c(F)ccc4cc(-c5cnc(C)s5)ncc34)c2C1 [Compound 6, 1-(1-(7-fluoro-3-(2-methylthiazol-5-yl)isoquinolin-8-yl)-3-(tetrahydro-2H-pyran-4-yl)-5,6-dihydroimidazo[1,5-α]pyrazin-7 (8H)-yl)ethan-1-one]
- IC50 (DOHH2 cells): 541 nM

- clearance [6]: 54.8 mL/min/kg
- half-life [6]: 35.3 min
- Vd [6]: 2 L/kg
- half-life at 1 μM [8]: 462 min
- half-life at 1 μM [9]: 540 min
- half-life at 1 μM [11]: 610 min
SMILES: CNC(=O)c1ccc(-c2cc3cccc(-c4nc(C5CCOCC5)n5c4CN(C(=O)NC)CC5)c3cn2)cn1 [Compound 8, reference compound]

- IC50 [1]: 34 nM
- IC50 [2]: 20.4 µM
SMILES: CNC(=O)c1ccc(-c2cc3ccc(F)c(-c4nc(C5CCOCC5)n5c4CN(C(C)=O)CC5)c3cn2)cn1 [Compound 5, 5-(8-(7-Acetyl-3-(tetrahydro-2H-pyran-4-yl)-5,6,7,8-tetrahydroimidazo[1,5-α]pyrazin-1-yl)-7-fluoroisoquinolin-3-yl)-N-methylpicolinamide]
- IC50 (DOHH2 cells): 216 nM
